Assay results: patent US20100317698A1, “Polysubstituted Pyridinylaminoalkylene- and Pyridinyloxyalkylene-Cyclopropanamine Compounds, a Process for Their Preparation and Pharmaceutical Compositions Containing Them” (LES LABORATOIRES SERVIER, priority 2006, published 2010)

melting point | SMILES
110 to 120 °C | CNC1(COc2cncc(-c3cccc(C#N)c3)c2)CC1.Cl.Cl
207 to 211 °C | COc1ccc(-c2cc(OCC3(N)CC3)cnc2Cl)cc1.Cl.Cl
130 °C | CNC1(COc2cnc(Cl)c(-c3ccc(C(N)=O)cc3)c2)CC1.Cl
138 to 145 °C | CNC1(CN(C)c2cnc(Cl)c(-c3ccc(C(=O)O)cc3)c2)CC1.Cl.Cl
216 to 220 °C | CNC1(COc2cnc(Cl)c(-c3ccc(O)cc3)c2)CC1.Cl.Cl
228 to 232 °C | CNC1(COc2cnc(Cl)c(-c3cccc(C#N)c3)c2)CC1.Cl
208 to 210 °C | COc1ccc(-c2cc(OCC3(N(C)C)CC3)cnc2Cl)cc1.Cl
190 to 200 °C | CNC1(CNc2cnc(C)c(-c3ccc(N)cc3)c2)CC1.Cl.Cl.Cl
142 to 146 °C | CNC1(COc2cnc(Cl)c(-c3ccc(CO)cc3)c2)CC1.Cl.Cl
238 to 242 °C | CNC1(COc2cnc(C)c(-c3cccc(C#N)c3)c2)CC1.Cl.Cl
126 to 130 °C | Cl.NCC1(COc2cnc(F)c(-c3cccc(Cl)c3)c2)CC1
211 to 215 °C | CNC1(COc2cnc(F)c(-c3ccc(C(=O)O)cc3)c2)CC1.Cl.Cl
140 to 145 °C | CNC1(CNc2cnc(Cl)c(-c3cccc(C(=O)O)c3)c2)CC1.Cl.Cl
235 to 240 °C | CNC1(CN(C)c2cnc(C)c(-c3ccc(N)cc3)c2)CC1.Cl.Cl.Cl
205 to 208 °C | CNC1(COc2cnc(-c3ccc(C#N)cc3)c(-c3ccc(C#N)cc3)c2)CC1.Cl.Cl
158 to 161 °C | Cl.Cl.NCC1(COc2cnc(F)c(-c3cccc(N)c3)c2)CC1
192 to 196 °C | CNC1(COc2cncc(-c3ccccc3C)c2)CC1.Cl.Cl
146 to 148 °C | CCOC(=O)c1ccc(-c2cc(OCC3(NC)CC3)cnc2Cl)cc1.Cl.Cl

The remaining lines, values behind:

SMILES | melting point
Cc1cccc(-c2cc(OCC3(CN)CC3)cnc2Cl)c1.Cl | 152 to 154 °C
CNC1(CNc2cnc(Cl)c(-c3cccnc3)c2)CC1.Cl.Cl.Cl | 180 to 185 °C
Cl.Cl.NCC1(COc2cnc(Cl)c(-c3cccnc3)c2)CC1 | 210 to 215 °C
Cl.Cl.NCC1(COc2cnc(-c3ccc(Cl)cc3)c(-c3ccc(Cl)cc3)c2)CC1 | 220 to 225 °C
Cl.NCC1(COc2cnc(Cl)c(-c3cccc(Cl)c3)c2)CC1 | 182 to 184 °C
Cl.NCC1(COc2cnc(Cl)c(-c3cc(C(F)(F)F)cc(C(F)(F)F)c3)c2)CC1 | 182 to 188 °C
Cl.Cl.NCC1(COc2cnc(Cl)c(-c3ccccc3)c2)CC1 | 130 to 135 °C
Cl.Cl.NCC1(COc2cnc(-c3ccc([N+](=O)[O-])cc3)c(-c3ccc([N+](=O)[O-])cc3)c2)CC1 | 215 to 220 °C
CNC1(CN(C)c2cnc(C)c(-c3ccncc3)c2)CC1.Cl.Cl.Cl | 182 to 187 °C
Cl.Cl.NCC1(COc2cnc(Cl)c(-c3ccncc3)c2)CC1 | 125 to 130 °C
Cl.Cl.Cl.NCC1(COc2cncc(-c3cccc(N)c3)c2)CC1 | 185 to 190 °C
CNC1(CNc2cnc(C)c(-c3ccncc3)c2)CC1.Cl.Cl.Cl | 240 to 248 °C
CNC1(COc2cncc(-c3cc(C(F)(F)F)cc(C(F)(F)F)c3)c2)CC1.Cl | 132 to 136 °C
CCc1ccc(-c2cncc(OCC3(CN)CC3)c2)cc1.Cl.Cl | 197 to 200 °C
Cl.Cl.NCC1(COc2cncc(-c3cccc(Cl)c3)c2)CC1 | 230 to 235 °C
COc1ccc(-c2cncc(OCC3(CN)CC3)c2)cc1.Cl.Cl | 215 to 220 °C
Cl.Cl.NCC1(COc2cncc(-c3cc(F)ccc3F)c2)CC1 | 188 to 192 °C
CNC1(CN(C)c2cnc(Cl)c(-c3ccncc3)c2)CC1.Cl.Cl | 110 to 120 °C
Cc1ncc(OCC2(CN)CC2)cc1-c1cccc(Cl)c1.Cl.Cl | 223 to 227 °C
CNC1(COc2cncc(-c3cc(OC)c(OC)c(OC)c3)c2)CC1.Cl | 116 to 120 °C
